Experimental data taken from US9198420B2, “Rodenticidal norbormide analogues” (priority 2012, dated 2015).
Read-outs that look alike come from different tables or passages of the source. Marks after values point to notes of the source that are not given here.

What was measured:
rat caudal artery = test: Rat caudal artery ring contractile force (vasoconstrictory activity); set-up: species or system rat (male Wistar)
How it was run: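 Endothelium-denuded caudal artery rings from male Wistar rats were held at 2 g resting tension in Tyrode solution (37° C, pH 7.35, 95% O2/CO2) and isometric force was recorded. Compounds were tested at 50 μM, with contraction expressed as percent of the 90 mM KCl response.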

Sprague Dawley rats [1] = test: In vivo lethality, oral gavage; set-up: species or system rat (Sprague Dawley); settings: rat; for Time to Death (min) / Onset of Symptoms: mean time; for Onset of Symptoms: visual signs of distress consistent with NRB-like symptoms
How it was run: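 Sprague Dawley rats (150-200 g) received compound dissolved in 0.2 M HCl (5% DMSO overall) at the desired dose, by oral gavage or tail-vein i.v. injection. Animals were watched for early toxicity signs every minute (i.v.) or every 15 min (oral).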

Sprague Dawley rats [2] = test: In vivo lethality, intravenous injection via the tail; set-up: species or system rat (Sprague Dawley); settings: rat
Procedure: Sprague Dawley rats (150-200 g) were used to appraise the rodenticidal activity of the compounds put forward for in vivo evaluation. Briefly, prior to administration the compounds were dissolved in 0.2 M hydrochloric acid (5% DMSO overall), to the desired dose, and without delay either injected intravenously, via the tail, or orally gavaged. All treated animals were housed in a quiet room and monitored every minute (i.v) or every 15 min (oral) to verify early signs of toxicity.

Sprague Dawley rats [3] = test: Palatability (no-choice) trial, peanut butter bait; assay type: in vivo, rat (Sprague Dawley); settings: po, 1% w/w toxicant in peanut butter bait
From the text: In the palatability trials, Sprague Dawley rats (ca. 250 g) were presented with 1% w/w compound (n=6) or 0.5% w/w compound (n=5) in a peanut butter bait, following 3 days ‘pre-baiting’ with a peanut butter formulation free of toxicant.

[4] = Table 1, read-out: Vasoconstriction: maximum contractile effect as a % of 90 mM KCl contraction
[5] = n = 6, 3 male and 3 female rats, Table 11, read-out: No of deaths (converted)
[6] = n = 6, 3 male and 3 female rats, Table 12, read-out: No of deaths (converted)

SMILES | Emax (rat caudal artery; [4]) | Vasoconstriction: maximum contractile effect as a % of 90 mM KCl contraction (rat caudal artery; Table 4, pre-cleavage, n = 3) | melting point | Time to Death (min) (Sprague Dawley rats [1]; 20 mg/Kg) | Onset of Symptoms (Sprague Dawley rats [1]; 20 mg/Kg) | In vivo lethality (oral) (Sprague Dawley rats [1]; 40 mg/Kg, n = 2) | also measured
CC(C)(C)C(=O)OCN1C(=O)C2C3C=C(C(O)(c4ccccc4)c4ccccn4)C(C3=C(c3ccccc3)c3ccccn3)C2C1=O (stereo not drawn) [Compound 8, 5-(α-Hydroxy-α-2-pyridylbenzyl)-N-pivaloyloxymethyl-7-(α-2-pyridylbenzylidene)-5-norbornene-2,3-dicarboximide] | ≥ 132% | ≧132% | 95 to 98 °C | – | – | – | –
CCCC(=O)OCN1C(=O)C2C3C=C(C(O)(c4ccccc4)c4ccccn4)C(C3=C(c3ccccc3)c3ccccn3)C2C1=O (stereo not drawn) [Compound 9, N-Butanoyloxymethyl-5-(α-hydroxy-α-2-pyridylbenzyl)-7-(α-2-pyridylbenzylidene)-5-norbornene-2,3-dicarboximide] | 86% | 86% | 68 to 79 °C | – | – | – | –
CCCCCCCC(=O)OCN1C(=O)C2C3C=C(C(O)(c4ccccc4)c4ccccn4)C(C3=C(c3ccccc3)c3ccccn3)C2C1=O (stereo not drawn) [Compound 10, 5-(α-Hydroxy-α-2-pyridylbenzyl)-N-octanoyloxymethyl-7-(α-2-pyridylbenzylidene)-5-norbornene-2,3-dicarboximide] | 0% | 0% | – | not lethal | 15 min | yes^h | In vivo lethality (i.v.) (Sprague Dawley rats [2]; 20 mg/Kg, n = 2): yes^f; mortality at 1 % (Sprague Dawley rats [3]; [5]): 100%
O=C(OCN1C(=O)C2C3C=C(C(O)(c4ccccc4)c4ccccn4)C(C3=C(c3ccccc3)c3ccccn3)C2C1=O)c1ccccc1 (stereo not drawn) [Compound 12, N-Benzoyloxymethyl-5-(α-hydroxy-α-2-pyridylbenzyl)-7-(α-2-pyridylbenzylidene)-5-norbornene-2,3-dicarboximide] | ≥ 132% | ≧132% | 94 to 96 °C | – | – | – | –
COc1ccccc1C(=O)OCN1C(=O)C2C3C=C(C(O)(c4ccccc4)c4ccccn4)C(C3=C(c3ccccc3)c3ccccn3)C2C1=O (stereo not drawn) [Compound 13, 5-(α-Hydroxy-α-2-pyridylbenzyl)-N-o-methoxybenzoyloxymethyl-7-(α-2-pyridylbenzylidene)-5-norbornene-2,3-dicarboximide] | 90% | 90% | 83 to 88 °C | – | – | – | –
COc1cccc(C(=O)OCN2C(=O)C3C4C=C(C(O)(c5ccccc5)c5ccccn5)C(C4=C(c4ccccc4)c4ccccn4)C3C2=O)c1 (stereo not drawn) [Compound 14, 5-(α-Hydroxy-α-2-pyridylbenzyl)-N-m-methoxybenzoyloxymethyl-7-(α-2-pyridylbenzylidene)-5-norbornene-2,3-dicarboximide] | 0% | 0% | 171 to 180 °C | – | – | – | –
COc1ccc(C(=O)OCN2C(=O)C3C4C=C(C(O)(c5ccccc5)c5ccccn5)C(C4=C(c4ccccc4)c4ccccn4)C3C2=O)cc1 (stereo not drawn) [Compound 15, 5-(α-Hydroxy-α-2-pyridylbenzyl)-N-p-methoxybenzoyloxymethyl-7-(α-2-pyridylbenzylidene)-5-norbornene-2,3-dicarboximide] | 0% | 0% | 94 to 112 °C | – | – | – | –
O=C(Cc1ccccc1)OCN1C(=O)C2C3C=C(C(O)(c4ccccc4)c4ccccn4)C(C3=C(c3ccccc3)c3ccccn3)C2C1=O (stereo not drawn) [Compound 16, 5-(α-Hydroxy-α-2-pyridylbenzyl)-N-phenylacetyloxymethyl-7-(α-2-pyridylbenzylidene)-5-norbornene-2,3-dicarboximide] | 15% | 15% | – | 90^d min | 15 min | yes^h,i | In vivo lethality (oral) (Sprague Dawley rats [1]; 20 mg/Kg, n = 2): yes^h,i; In vivo lethality (i.v.) (Sprague Dawley rats [2]; 20 mg/Kg, n = 2): yes^f; mortality at 1 % (Sprague Dawley rats [3]; [5]): 83.3%
O=C(CCc1ccccc1)OCN1C(=O)C2C3C=C(C(O)(c4ccccc4)c4ccccn4)C(C3=C(c3ccccc3)c3ccccn3)C2C1=O (stereo not drawn) [Compound 18, N-Dihydrocinnamoyloxymethyl-5-(α-hydroxy-α-2-pyridylbenzyl)-7-(α-2-pyridylbenzylidene)-5-norbornene-2,3-dicarboximide] | 13% | 13% | 89 to 94 °C | – | – | – | –
O=C1C2C3C=C(C(O)(c4ccccc4)c4ccccn4)C(C3=C(c3ccccc3)c3ccccn3)C2C(=O)N1CCCO (stereo not drawn) [Compound 104, N-3′-Hydroxypropyl-5-(α-hydroxy-α-2-pyridylbenzyl)-7-(α-2-pyridylbenzylidene)-5-norbornene-2,3-dicarboximide] | – | – | – | – | – | – | Vasoconstriction: maximum contractile effect as a % of 90 mM KCl contraction (rat caudal artery; Table 7, compounds of formula (V)): ≧132%; Vasoconstriction: maximum contractile effect as a % of 90 mM KCl contraction (rat caudal artery; n = 3, Table 8): ≧132%; In vivo lethality (oral) (Sprague Dawley rats [1]; 40 mg/Kg, n = 3, Table 8): yes^c; In vivo lethality (i.v.) (Sprague Dawley rats [2]; 20 mg/Kg, n = 3, Table 8): yes^b
O=C(C=Cc1ccc(Cl)cc1)OCCN1C(=O)C2C3C=C(C(O)(c4ccccc4)c4ccccn4)C(C3=C(c3ccccc3)c3ccccn3)C2C1=O (stereo not drawn) [Compound 129, N-[2′-(4″-Chlorocinnamoyloxy)ethyl]-5-(α-hydroxy-α-2-pyridylbenzyl)-7-(α-2-pyridylbenzylidene)-5-norbornene-2,3-dicarboximide] | 0% | 0% | – | – | – | yes^h,i | In vivo lethality (oral) (Sprague Dawley rats [1]; 20 mg/Kg, n = 2): yes^h,i; In vivo lethality (i.v.) (Sprague Dawley rats [2]; 20 mg/Kg, n = 2): yes^f
NCc1ccc(C(=O)OCCN2C(=O)C3C4C=C(C(O)(c5ccccc5)c5ccccn5)C(C4=C(c4ccccc4)c4ccccn4)C3C2=O)cc1.O=C(O)C(F)(F)F (stereo not drawn) [Compound 342, N-[2′-(4-Aminomethylbenzoyloxy)ethyl]-5-(α-hydroxy-α-2-pyridylbenzyl)-7-(α-2-pyridylbenzylidene)-5-norbornene-2,3-dicarboximide trifluoroacetate] | 136% | 136% | – | – | – | yes^h | mortality at 1 % (Sprague Dawley rats [3]; [5]): 66.7%
CCOc1ccc(C=CC(=O)NCCN2C(=O)C3C4C=C(C(O)(c5ccccc5)c5ccccn5)C(C4=C(c4ccccc4)c4ccccn4)C3C2=O)cc1 (stereo not drawn) [Compound 345, N-[2′-(4″-Ethoxycinnamamido)ethyl]-5-(α-hydroxy-α-2-pyridylbenzyl)-7-(α-2-pyridylbenzylidene)-5-norbornene-2,3-dicarboximide] | – | 0% | – | 65^d min | 15 min | yes^h,i | Emax (rat caudal artery; Table 2, read-out: Vasoconstriction: maximum contractile effect as a % of 90 mM KCl contraction): 0%; In vivo lethality (oral) (Sprague Dawley rats [1]; 20 mg/Kg, n = 2): yes^h,i; mortality at 1 % (Sprague Dawley rats [3]; [6]): 33.3%
CC(C)c1ccc(C=CC(=O)OCCN2C(=O)C3C4C=C(C(O)(c5ccccc5)c5ccccn5)C(C4=C(c4ccccc4)c4ccccn4)C3C2=O)cc1 (stereo not drawn) [Compound 347, 5-(α-Hydroxy-α-2-pyridylbenzyl)-N-[2′-(4″-isopropylcinnamoyloxy)ethyl]-7-(α-2-pyridylbenzylidene)-5-norbornene-2,3-dicarboximide] | 0% | 0% | – | not lethal | 20 min | yes^h | mortality at 1 % (Sprague Dawley rats [3]; [6]): 50%
O=C1NC(=O)C2C3C(C(O)(c4ccccc4)c4ccccn4)=CC(C3=C(c3ccccc3)c3ccccn3)C12 (stereo not drawn) [endo-NRB, 5-(α-Hydroxy-α-2-pyridylbenzyl)-7-(α-2-pyridylbenzylidene)-5-norbornene-2,3-dicarboximide, reference compound] | – | 132% | – | 35^d min | 5 min | yes^h,i | Vasoconstriction: maximum contractile effect as a % of 90 mM KCl contraction (rat caudal artery; n = 3, Table 8): 132%; Vasoconstriction: maximum contractile effect as a % of 90 mM KCl contraction (rat caudal artery; n = 3, pre-cleavage, Table 6): 132%; In vivo lethality (oral) (Sprague Dawley rats [1]; 20 mg/Kg, n = 2): yes^h,i; In vivo lethality (oral) (Sprague Dawley rats [1]; 20 mg/Kg, n = 2, Table 6): yes^g,h; In vivo lethality (oral) (Sprague Dawley rats [1]; 20 mg/Kg, n = 3, Table 8): yes^c,d; In vivo lethality (oral) (Sprague Dawley rats [1]; 40 mg/Kg, n = 2, Table 6): yes^g,h; In vivo lethality (oral) (Sprague Dawley rats [1]; 40 mg/Kg, n = 3, Table 8): yes^c,d; In vivo lethality (i.v.) (Sprague Dawley rats [2]; 10 mg/Kg, n = 2): yes^f,g; In vivo lethality (i.v.) (Sprague Dawley rats [2]; 10 mg/Kg, n = 2, Table 6): yes^e,f; In vivo lethality (i.v.) (Sprague Dawley rats [2]; 20 mg/Kg, n = 2): yes^f,g; In vivo lethality (i.v.) (Sprague Dawley rats [2]; 20 mg/Kg, n = 2, Table 6): yes^e,f; In vivo lethality (i.v.) (Sprague Dawley rats [2]; 20 mg/Kg, n = 3, Table 8): yes^b; mortality at 1 % (Sprague Dawley rats [3]; [5]): 66.7%; mortality at 1 % (Sprague Dawley rats [3]; [6]): 50%; mortality at 1 % (Sprague Dawley rats [3]; n = 6, male rats only, Table 10, read-out: No of deaths (converted)): 50%
